# Experimental data: patent US7928104B2, “7-phenylalkyl substituted 2-quinolinones and 2-quinoxalinones as poly(ADP-ribose) polymerase inhibitors” (priority 2003, dated 2011)
# Structures can show the parent of a compound that is named as a salt.
# Legend:
# PARP-1 enzyme [1] = molecular target: T1, PARP-1 enzyme (Homo sapiens, UniProt P09874); experiment: In vitro Scintillation Proximity Assay (SPA) for PARP-1 inhibitory activity; type: biochemical; conditions: nicked DNA activated PARP-1, [3H]-NAD+, biotinylated histones; read-out: In vitro SPA pIC50 (converted)
# T1 construct: made in house
# T1 sequence (P09874 whole entry): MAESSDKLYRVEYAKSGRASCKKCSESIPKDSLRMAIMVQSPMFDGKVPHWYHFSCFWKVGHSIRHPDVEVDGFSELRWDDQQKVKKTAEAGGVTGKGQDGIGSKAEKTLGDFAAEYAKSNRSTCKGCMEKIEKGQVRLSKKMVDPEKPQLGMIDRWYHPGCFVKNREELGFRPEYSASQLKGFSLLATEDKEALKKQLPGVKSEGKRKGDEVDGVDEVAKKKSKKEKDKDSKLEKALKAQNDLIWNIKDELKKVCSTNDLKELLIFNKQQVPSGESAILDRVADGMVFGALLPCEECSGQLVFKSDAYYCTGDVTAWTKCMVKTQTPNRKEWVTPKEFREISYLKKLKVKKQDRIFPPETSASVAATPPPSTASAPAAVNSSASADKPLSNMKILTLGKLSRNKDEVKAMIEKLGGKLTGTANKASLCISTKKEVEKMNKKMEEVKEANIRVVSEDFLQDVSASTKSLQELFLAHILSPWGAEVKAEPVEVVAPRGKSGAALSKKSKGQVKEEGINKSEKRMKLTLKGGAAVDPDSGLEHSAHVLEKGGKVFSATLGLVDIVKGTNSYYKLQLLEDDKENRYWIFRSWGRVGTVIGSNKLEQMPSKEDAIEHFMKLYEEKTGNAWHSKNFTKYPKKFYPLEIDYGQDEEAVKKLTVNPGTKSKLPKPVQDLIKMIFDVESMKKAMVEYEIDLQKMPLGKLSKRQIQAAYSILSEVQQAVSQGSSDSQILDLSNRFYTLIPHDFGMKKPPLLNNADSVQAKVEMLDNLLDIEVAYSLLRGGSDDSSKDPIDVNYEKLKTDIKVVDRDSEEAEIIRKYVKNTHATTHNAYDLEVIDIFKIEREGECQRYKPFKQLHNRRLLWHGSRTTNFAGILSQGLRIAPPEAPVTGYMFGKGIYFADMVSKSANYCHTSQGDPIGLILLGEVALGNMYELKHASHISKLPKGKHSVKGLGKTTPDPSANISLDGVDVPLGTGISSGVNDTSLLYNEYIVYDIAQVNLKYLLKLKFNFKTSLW
# Description: Compounds of the present invention were tested in an in vitro assay based on SPA technology (proprietary to Amersham Pharmacia Biotech).
# In principle, the assay relies upon the well established SPA technology for the detection of poly(ADP-ribosyl)ation of biotinylated target proteins, i.e histones. This ribosylation is induced using nicked DNA activated PARP-1 enzyme and [^3H]-nicotinamide adenine dinucleotide ([^3H]-NAD^+) as ADP-ribosyl donor.
# As inducer of PARP-1 enzyme activity, nicked DNA was prepared. For this, 25 mg of DNA (supplier: Sigma) was dissolved in 25 ml DNAse buffer (10 mM Tris-HCl, pH 7.4; 0.5 mg/ml Bovine Serum Albumine (BSA); 5 mM MgCl2.6H2O and 1 mM KCl) to which 50 μl DNAse solution (1 mg/ml in 0.15 M NaCl) was added. After an incubation of 90 min. at 37° C., the reaction was terminated by adding 1.45 g NaCl, followed by a further incubation at 58° C. for 15 min. The reaction mixture was cooled on ice and dialysed at 4° C. for respectively 1.5 and 2 hours against 1.5 l of 0.2 M KCl, and twice against 1.5 l of 0.01 M KCl for 1.5 and 2 h respectively. The mixture was aliquoted and stored at −20° C. Histones (1 mg/ml, type II-A, supplier: Sigma) were biotinylated using the biotinylation kit of Amersham and stored aliquoted at −20° C. A stock solution of 100 mg/ml SPA poly(vinyl toluene) (PVT) beads (supplier: Amersham) was made in PBS. A stock solution of [^3H]-NAD^+ was made by adding 120 μl of [^3H]-NAD^+ (0.1 mCi/ml, supplier: NEN) to 6 ml incubation buffer (50 mM Tris/HCl, pH 8; 0.2 mM DTT; 4 mM MgCl2). A solution of 4 mM NAD^+ (supplier: Roche) was made in incubation buffer (from a 100 mM stock solution in water stored at −20° C.). The PARP-1 enzyme was produced using art known techniques, i.e. cloning and expression of the protein starting from human liver cDNA. Information concerning the used protein sequence of the PARP-1 enzyme including literature references can be found in the Swiss-Prot database under primary accession number P09874. Biotinylated histones and PVT-SPA beads were mixed and pre-incubated for 30 min. at room temperature. PARP-1 enzyme (concentration was lot dependent) was mixed with the nicked DNA and the mixture was pre-incubated for 30 min. at 4° C. Equal parts of this histones/PVT-SPA beads solution and PARP-1 enzyme/DNA solution were mixed and 75 μl of this mixture together with 1 μl of compound in DMSO and 25 μl of [^3H]-NAD^+ was added per well into a 96-well microtiterplate. The final concentrations in the incubation mixture were 2 μg/ml for the biotinylated histones, 2 mg/ml for the PVT-SPA beads, 2 μg/ml for the nicked DNA and between 5-10 μg/ml for the PARP-1 enzyme. After incubation of the mixture for 15 min. at room temperature, the reaction was terminated by adding 100 μl of 4 mM NAD^+ in incubation buffer (final concentration 2 mM) and plates were mixed. The beads were allowed to sediment for at least 15 min. and plates transferred to a TopCountNXT™ (Packard) for scintillation counting, values were expressed as counts per minute (cpm). For each experiment, controls (containing PARP-1 enzyme and DMSO without compound), a blank incubation (containing DMSO but no PARP-1 enzyme or compound) and samples (containing PARP-1 enzyme and compound dissolved in DMSO) were run in parallel. All compounds tested were dissolved and eventually further diluted in DMSO. […] In each test, the blank value was subtracted from both the control and the sample values. The control sample represented maximal PARP-1 enzyme activity. For each sample, the amount of cpm was expressed as a percentage of the mean cpm value of the controls. When appropriate, IC50-values (concentration of the drug, needed to reduce the PARP-1 enzyme activity to 50% of the control) were computed using linear interpolation between the experimental points just above and below the 50% level. Herein the effects of test compounds are expressed as pIC50 (the negative log value of the IC50-value). […]
# PARP-1 enzyme [2] = molecular target: T1, PARP-1 enzyme; experiment: In vitro filtration assay for PARP-1 inhibitory activity; type: biochemical; conditions: nicked DNA activated PARP-1, [32P]-NAD+, histones; read-out: In vitro filtration assay pIC50 (converted)
# Description: Compounds of the present invention were tested in an in vitro filtration assay assessing PARP-1 activity (triggered in the presence of nicked DNA) by means of its histone poly(ADP-ribosyl)ation activity using [^32P]-NAD as ADP-ribosyl donor. The radioactive ribosylated histones were precipitated by trichloroacetic acid (TCA) in 96-well filterplates and the incorporated [^32P] measured using a scintillation counter
# A mixture of histones (stock solution: 5 mg/ml in H2O), NAD^+ (stock solution: 100 mM in H2O), and [^32P]-NAD^+ in incubation buffer (50 mM Tris/HCl, pH 8; 0.2 mM DTT; 4 mM MgCl2) was made. A mixture of the PARP-1 enzyme (5-10 μg/ml) and nicked DNA was also made. The nicked DNA was prepared as described in the in vitro SPA for PARP-1 inhibitory activity. Seventy-five μl of the PARP-1 enzyme/DNA mixture together with 1 μl of compound in DMSO and 25 μl of histones-NAD^+/[^32P]-NAD^+ mixture was added per well of a 96-well filterplate (0.45 μm, supplier Millipore). The final concentrations in the incubation mixture were 2 μg/ml for the histones, 0.1 mM for the NAD^+, […] (0.5 μC) for the [^32P]-NAD^+ and 2 μg/ml for the nicked DNA. Plates were incubated for 15 min. at room temperature and the reaction was terminated by the addition of 10 μl ice cold 100% TCA followed by the addition of 10 μl ice-cold BSA solution (1% in H2O). The protein fraction was allowed to precipitate for 10 min. at 4° C. and plates were vacuum filtered. The plates were subsequently washed with, for each well, 1 ml of 10% ice cold TCA, 1 ml of 5% ice cold TCA and 1 ml of 5% TCA at room temperature. Finally 100 μl of scintillation solution (Microscint 40, Packard) was added to each well and the plates were transferred to a TopCountNXT™ (supplier: Packard) for scintillation counting and values were expressed as counts per minute (cpm). For each experiment, controls (containing PARP-1 enzyme and DMSO without compound), a blank incubation (containing DMSO but no PARP-1 enzyme or compound) and samples (containing PARP-1 enzyme and compound dissolved in DMSO) were run in parallel. All compounds tested were dissolved and eventually further diluted in DMSO. In first instance, compounds were tested at a concentration of 10^−5M. […] In each test, the blank value was subtracted from both the control and the sample values. The control sample represented maximal PARP-1 enzyme activity. For each sample, the amount of cpm was expressed as a percentage of the mean cpm value of the controls. When appropriate, IC50-values (concentration of the drug, needed to reduce the PARP-1 enzyme activity to 50% of the control) were computed using linear interpolation between the experimental points just above and below the 50% level. Herein the effects of test compounds are expressed as pIC50 (the negative log value of the IC50−-value). As a reference compound, 4-amino-1,8-naphthalimide was included to validate the filtration assay.
# [3] = test system: ischemia and reperfusion of the heart; conditions: rabbits, cited from earlier work
# colitis = conditions: rats, colitis induced by intraluminal trinitrobenzene sulfonic acid in 50% ethanol; cited from earlier work
Structure (SMILES),IC50 (PARP-1 enzyme [1]),IC50 (PARP-1 enzyme [2]),also measured
CCc1nc2ccc(C(c3ccccc3)N3CCC(NCCOC)CC3)cc2[nH]c1=O (stereo not shown) (as salt: salt) [Compound 2],,,melting point: 98 °C
Cc1nc2ccc(C(c3ccc(C(C)C)cc3)n3ccnc3)cc2[nH]c1=O (stereo not shown) [Compound 8],411 nM,1410 nM,
"Oc1cccc2c(O)nccc12 [1,5-dihydroxyisoquinoline]",,,reduction in infarct size ([3]; single injection 1 mg/kg): 38-48%
CCOC(=O)C1CCN(C(c2ccc(Cl)cc2)c2ccc3nc(CC)c(=O)[nH]c3c2)CC1 (stereo not shown) [Compound 6],818 nM,,
Cc1cc2ccc(C(CCN(C)C)c3ccccc3)cc2[nH]c1=O (stereo not shown) [Compound 3],899 nM,9890 nM,
CCc1nc2ccc(CC(c3ccc(Cl)cc3)N3CCCC3)cc2[nH]c1=O (stereo not shown) [Compound 7],586 nM,,
NC(=O)c1cccc(N)c1 [3-amino-benzamide],,,"reduction in infarct size in the heart ([3]; single injection 10 mg/kg, one minute before occlusion or one minute before reperfusion): 32-42%; effect on inflammatory response, distal colon (colitis): reduced the inflammatory response"
CCc1nc2ccc(CC(c3ccccc3)n3ccnc3)cc2[nH]c1=O (stereo not shown) [Compound 1],206 nM,,melting point: 166 °C
CCc1nc2ccc(C(c3ccccc3)N3CCC(NCCOC)CC3)cc2[nH]c1=O (stereo not shown) [Compound 2],7.5 nM,,
CCc1nc2ccc(C(c3ccc(Cl)cc3)N3CCCCC3)cc2[nH]c1=O (stereo not shown) [Compound 5],236 nM,693 nM,
CCc1nc2ccc(C(O)c3ccccc3)cc2[nH]c1=O (stereo not shown) [Compound 4],409 nM,,melting point: 202 °C

# Now from value to molecule, other results behind:
IC50 (PARP-1 enzyme [1]),IC50 (PARP-1 enzyme [2]),Structure (SMILES),also measured
1000 nM,4130 nM,CCc1nc2ccc(C(c3ccc(F)cc3)n3ccnc3)cc2[nH]c1=O (stereo not shown) [Compound 18],
577 nM,4530 nM,CCc1nc2ccc(C(c3ccccc3)c3cccnc3)cc2[nH]c1=O (stereo not shown) [Compound 16],
552 nM,,CCc1nc2ccc(CC(O)c3ccc(Cl)cc3)cc2[nH]c1=O (stereo not shown) [Compound 10],
914 nM,,CCc1nc2ccc(CC(O)c3ccccc3)cc2[nH]c1=O (stereo not shown) [Compound 11],
4110 nM,> 10000 nM,"Cc1nc2ccc(C(c3ccc(Cl)cc3)n3ccnc3)cc2[nH]c1=O (stereo not shown) [Compound 20, 7-[(4-chlorophenyl)-1H-imidazol-1-ylmethyl]-3-methyl-2(1H)-quinoxalinone]",
334 nM,,CCc1nc2ccc(C(c3ccccc3)n3cncn3)cc2[nH]c1=O (stereo not shown) [Compound 17],
728 nM,3600 nM,CCc1nc2ccc(C(c3cccc(F)c3)n3ccnc3)cc2[nH]c1=O (stereo not shown) [Compound 12],
718 nM,4940 nM,CCc1nc2ccc(C(c3ccccc3F)n3ccnc3)cc2[nH]c1=O (stereo not shown) [Compound 13],
312 nM,,CCc1nc2ccc(C(NCCCN(C)Cc3ccccc3)c3ccccc3)cc2[nH]c1=O (stereo not shown) [Compound 9],
329 nM,6380 nM,CCc1nc2ccc(CC(c3ccc(Cl)cc3)n3ccnc3)cc2[nH]c1=O (stereo not shown) [Compound 15],
1600 nM,2670 nM,CCc1nc2ccc(C(c3ccccc3)n3cccn3)cc2[nH]c1=O (stereo not shown) [Compound 14],
231 nM,615 nM,CCc1nc2ccc(C(c3ccccc3)n3ccnc3)cc2[nH]c1=O (stereo not shown) [Compound 19],
